# In patent publication US4636490A, “Novel peptidic derivatives inhibiting gastric secretion, process for preparing them and drugs containing them” (Sanofi, priority 1983, dated 1987):
# Residues, ends and D or L forms follow the SMILES beside them. *: point of attachment. Cbz = O=C(OCc1ccccc1)*; Boc = CC(C)(C)OC(=O)*
# Experiments:
# [1] = test system: gastric secretion stimulated by the gastrin; test: Antagonist effect: inhibition of gastrin (minigastrin)-stimulated acid secretion, stomach of a reperfused, anaesthetized rat; type: in vivo
# Excerpt: (§1) The compounds according to the invention were studied as far as their therapeutical properties are concerned. More particularly, these compounds were studied in vivo as far as their gastric secretory effect in the rat is concerned. The model chosen for measuring the secretory effect is that of the stomach of a reperfused, anaesthetized rat. The protocol followed is a modification of the one described previously by Ghosh and Schild. A male rat of Wistar strain, weighing 300 g, having fasted for 18 hours, is anaesthetized with urethane (10% solution, 1.5 ml/100 g i.p.). A tracheotomy is then made, as well as a catheterism of the vein of the penis which will allow i.v. administration of the peptides. A cannula is then placed in the oesophagus up to the cardiac orifice and a second cannula in the duodenum (by a duodenotomy made about 3 cm from the pylorus) up to the antral gastric zone. A propionic-succinic solute (pH 5.5) which gives a linear variation of the pH as a function of the concentration of H^+ ions is used for perfusing the stomach in open or closed circuit with a flow rate of 3 ml/min. The body temperature, as well as that of the solute, is monitored and maintained at 30° C. The acid secretion of the stomach will bring about a variation in pH detected by the glass half-cell and recorded as a function of time. After stabilization of the basal secretion, gastrin is injected by the intravenous route, either in perfusion or in a single injection. The response is recorded as a function of time and the quantity of acid secretion is measured on the recording by difference with the basal secretion. The same experiment is carried out either by injecting the peptide to be studied i.v. on a plateau of acid secretion stimulated by the gastrin, or by associating the peptide with the stimulant in variable ratios of concentration. Finally, the peptide is administered alone at different doses in order to examine its agonist effect.
# gastric secretion = test: Agonist effect: gastric secretory effect of the peptide administered alone i.v., stomach of a reperfused, anaesthetized rat; type: in vivo; conditions: anaesthetized male Wistar rat
# Excerpt: as §1
# [2] = agonist minigastrin 0.6 μg/kg (single), dose of antagonist 1.5 mg/kg i.v.
Compound,"Inhibiting effect (%) ([1]; agonist minigastrin 0.6 μg/kg (single), dose of antagonist 1.2 mg/kg i.v.)",Secretary effect (40 mins.) (gastric secretion; dose 5000 μg/kg) [μmol H^+],"Inhibiting effect (%) [1, 2] [%]",Secretary effect (40 mins.) (gastric secretion; dose 10000 μg/kg) [μmol H^+],"Inhibiting effect (%) ([1]; agonist minigastrin 1.5 μg/kg/hr (perfusion), dose of antagonist 1.5 mg/kg i.v.)",Secretary effect (40 mins.) (gastric secretion; dose 1000 μg/kg) [μmol H^+]
"CSCC[C@H](NC(=O)[C@H](Cc1c[nH]c2ccccc12)NC(=O)CNC(=O)[C@H](Cc1ccc(O)cc1)NC(=O)OC(C)(C)C)C(=O)N[C@@H](CC(=O)O)C(N)=O [Example 4, Boc--Tyr--Gly--Trp--Met--Asp--NH2] (Boc-YGWMD-NH2)",50.4,0.1,–,–,–,–
"CSCC[C@H](NC(=O)[C@H](Cc1c[nH]c2ccccc12)NC(=O)CNC(=O)[C@H](Cc1ccc(O)cc1)NC(=O)[C@H](C)NC(=O)[C@H](CCC(=O)O)NC(=O)OCc1ccccc1)C(=O)N[C@@H](CC(=O)O)C(N)=O [Example 5, Z--Glu--Ala--Tyr--Gly--Trp--Met--Asp--NH2] (Cbz-EAYGWMD-NH2)",–,–,50,0,–,–
Z--Tyr(HSO3)--Met--Gly--Trp--Met--Asp--NH2 [Example 3],–,–,47,–,47.4,0.15
